Measured values from patent publication US12459951B2, “Compounds that interact with RAS superfamily proteins for treatment of cancers, inflammatory diseases, rasopathies, and fibrotic disease” (SHY Therapeutics, LLC, priority 2022, dated 2025).

How the values were obtained:
Erk1/2 phosphorylation = assay: Erk1/2 Phosphorylation Assay (western blot), Panc-1; format: cell-based, human; settings: at 10 μM, * = activation
Outline: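 Phospho-Erk1/2 (Thr202/Tyr204) was detected by western blot in lysates of Panc-1 cells (KRas G12D). These had 6 h, 37° C exposure to 10 μM compound or a dilution series for IC50, in 0.3% DMSO. Cells were either starved overnight in 0.5% FBS with a 15-min 1.5 ng/ml EGF pulse, or kept unstimulated in 10% FBS.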

JNK phosphorylation = assay: JNK Activation Assay (western blot), Panc-1; format: cell-based, human; settings: at 10 μM, Panc-1 pancreatic cancer cell line; starred symbols = activation
Protocol: Protocol for JNK Activation Assay
This assay is referred to as the “JNK Activation Assay” throughout this application.
Cell lines: Human tumor-derived pancreatic cancer cell line Panc-1 (expressing KRas […] mutant) was purchased from American Type Culture Collection and grown in complete DMEM-High Glucose medium, supplemented with penicillin (100 U/mL), streptomycin (100 μg/mL), and 10% heat-inactivated FBS at 37° C. in a humidified incubator with 5% CO2.
Method 1: Cells were plated at 350000 cells/well density in a 12-well plate, allowed 3 hours to adhere to the plate, then starved in the appropriate medium in the presence of 0.5% FBS overnight. The small molecules to be tested were added to the cells in the final concentration of 10 μM in the presence of 0.3% DMSO for 6 hours incubation at 37° C. For IC50 value determination, serial dilutions of compounds were added to cells under the same conditions. Next, cells were stimulated with 1.5 ng/ml EGF for 15 minutes then cells were lysed with lysis buffer containing 1% Triton X-100, EDTA, and Halt™ Protease & Phosphatase Inhibitor Cocktail (Thermo Scientific). Protein concentration was assessed by BCA protein assay (Thermo Scientific). Phosphorylation level of JNK was determined by western blot.
Method 2: Cells were plated at 350000 cells/well density in a 12-well plate in the presence of 10% FBS. The next day small molecules to be tested were added to the cells in the final concentration of 10 μM in the presence of 0.3% DMSO for 6 hours incubation at 37° C. For IC50 value determination, serial dilutions of compounds were added to cells under the same conditions. Next, cells were lysed with lysis buffer containing 1% Triton X-100, EDTA, and Halt™ Protease & Phosphatase Inhibitor Cocktail (Thermo Scientific). Protein concentration was assessed by BCA protein assay (Thermo Scientific). Phosphorylation level of JNK was determined by western blot.
Western blot protocol: Equal amounts of protein (15-50 μg) were separated by SDS-PAGE and transferred to nitrocellulose membranes (Invitrogen by Thermo Fisher Scientific). The membrane was stained with Ponceau S Stain (Boston BioProducts) to verify uniform protein loading. Membranes were blocked with 10% milk and phosphorylation levels of JNK were assessed by incubating overnight at 4° C. with the antibody Phospho-SAPK/JNK (Thr183/Tyr185), from Cell Signaling Technology. Then the membranes were incubated with HRP-conjugated secondary antibody (Jackson Immunoresearch, West Grove, PA). Bands were incubated in Amersham ECL Prime Western Blotting Detection Reagent (GE Healthcare) and visualized using the ChemiDoc MP imaging system (Bio-Rad).

SMILES: COc1ccc(-c2cn3nc(-c4nccn4C)nc(Nc4cc(OC)ncn4)c3c2C)cn1 [Compound 66, 6-(6-Methoxypyridin-3-yl)-N-(6-methoxypyrimidin-4-yl)-5-methyl-2-(1-methyl-1H-imidazol-2-yl)pyrrolo[2,1-f][1,2,4]triazin-4-amine]
- % inh of Erk1/2 phosphorylation in Panc-1 (Erk1/2 phosphorylation): C (50-84% inhibition)
- % inh of JNK in Panc-1 (JNK phosphorylation): H* (H* ≥ 100% activation)

SMILES: COC1CCCN(c2nc(-c3ccccn3)nn3cc(-c4ccn(C(C)C)n4)c(-c4ccccc4)c23)C1 (racemic) [Compound 27, rac 6-(1-Isopropyl-1H-pyrazol-3-yl)-4-(3-methoxypiperidin-1-yl)-5-phenyl-2-(pyridin-2-yl)pyrrolo[2,1-f][1,2,4]triazine]
- % inh of Erk1/2 phosphorylation in Panc-1 (Erk1/2 phosphorylation): 0 (0% inhibition)
- % inh of JNK in Panc-1 (JNK phosphorylation): H* (H* ≥ 100% activation)

SMILES: Cc1c(-c2ccn(C(C)C)n2)cn2nc(-c3nccn3C)nc(Nc3ncco3)c12 [Compound 60, N-(6-(1-Isopropyl-1H-pyrazol-3-yl)-5-methyl-2-(1-methyl-1H-imidazol-2-yl)pyrrolo[2,1-f][1,2,4]triazin-4-yl)oxazol-2-amine]
- % inh of Erk1/2 phosphorylation in Panc-1 (Erk1/2 phosphorylation): A (1-25% inhibition)
- % inh of JNK in Panc-1 (JNK phosphorylation): H* (H* ≥ 100% activation)

SMILES: COCCCNc1nc(-c2nccn2C)nn2cc(-c3cccc(OC)c3Cl)c(-c3ccccc3)c12 [Compound 30, 6-(2-Chloro-3-methoxyphenyl)-N-(3-methoxypropyl)-2-(1-methyl-1H-imidazol-2-yl)-5-phenylpyrrolo[2,1-f][1,2,4]triazin-4-amine]
- % inh of Erk1/2 phosphorylation in Panc-1 (Erk1/2 phosphorylation): D (85-100% inhibition)
- % inh of JNK in Panc-1 (JNK phosphorylation): F (F = 31-74% inhibition)

SMILES: Cc1c(-c2ccn(C(C)C)n2)cn2nc(-c3nccn3C)nc(Nc3ccn(C)n3)c12 [Compound 61, 6-(1-Isopropyl-1H-pyrazol-3-yl)-5-methyl-2-(1-methyl-1H-imidazol-2-yl)-N-(1-methyl-1H-pyrazol-3-yl)pyrrolo[2,1-f][1,2,4]triazin-4-amine]
- % inh of Erk1/2 phosphorylation in Panc-1 (Erk1/2 phosphorylation): A* (1-25% activation)
- % inh of JNK in Panc-1 (JNK phosphorylation): H* (H* ≥ 100% activation)

SMILES: Cc1c(-c2ccn(C)n2)cn2nc(-c3nccn3C)nc(Nc3cc(-c4cccnc4)ccn3)c12 [Compound 250, N-([3,4′-Bipyridin]-2′-yl)-5-methyl-2-(1-methyl-1H-imidazol-2-yl)-6-(1-methyl-1H-pyrazol-3-yl)pyrrolo[2,1-f][1,2,4]triazin-4-amine]
- % inh of Erk1/2 phosphorylation in Panc-1 (Erk1/2 phosphorylation): C* (46-84% activation)

SMILES: Cc1c(-c2ccn(C)n2)cn2nc(-c3nccn3C)nc(Nc3cc(C(F)(F)F)[nH]n3)c12 [Compound 259, 5-Methyl-2-(1-methyl-1H-imidazol-2-yl)-6-(1-methyl-1H-pyrazol-3-yl)-N-(5-(trifluoromethyl)-1H-pyrazol-3-yl)pyrrolo[2,1-f][1,2,4]triazin-4-amine]
- % inh of Erk1/2 phosphorylation in Panc-1 (Erk1/2 phosphorylation): A* (1-25% activation)

SMILES: COc1cncnc1Nc1nc(-c2nccn2C)nn2cc(-c3ccn(C(C)C)n3)c(C)c12 [Compound 73, 6-(1-Isopropyl-1H-pyrazol-3-yl)-N-(5-methoxypyrimidin-4-yl)-5-methyl-2-(1-methyl-1H-imidazol-2-yl)pyrrolo[2,1-f][1,2,4]triazin-4-amine]
- % inh of Erk1/2 phosphorylation in Panc-1 (Erk1/2 phosphorylation): D* (85-100% activation)

SMILES: COc1cccc(-c2cn3nc(-c4nccn4C)nc(N[C@H]4C[C@H](OC)C4)c3c2-c2ccccn2)c1C [Compound 274, 6-(3-Methoxy-2-methylphenyl)-N-((1r,3r)-3-methoxycyclobutyl)-2-(1-methyl-1H-imidazol-2-yl)-5-(pyridin-2-yl)pyrrolo[2,1-f][1,2,4]triazin-4-amine]
- % inh of Erk1/2 phosphorylation in Panc-1 (Erk1/2 phosphorylation): D (85-100% inhibition)

SMILES: Cc1[nH]nc(Nc2nc(-c3nccn3C)nn3cc(-c4ccn(C)n4)c(C)c23)c1C [Compound 267, N-(4,5-Dimethyl-1H-pyrazol-3-yl)-5-methyl-2-(1-methyl-1H-imidazol-2-yl)-6-(1-methyl-1H-pyrazol-3-yl)pyrrolo[2,1-f][1,2,4]triazin-4-amine]
- % inh of Erk1/2 phosphorylation in Panc-1 (Erk1/2 phosphorylation): D* (85-100% activation)

SMILES: COc1cccc(Nc2nc(-c3nccn3C)nn3ccc(C)c23)n1 [Compound 38, N-(6-Methoxypyridin-2-yl)-5-methyl-2-(1-methyl-1H-imidazol-2-yl)pyrrolo[2,1-f][1,2,4]triazin-4-amine]
- % inh of Erk1/2 phosphorylation in Panc-1 (Erk1/2 phosphorylation): 0 (0% inhibition)

SMILES: Cc1c(-c2ccn(C)n2)cn2nc(-c3nccn3C)nc(Nc3cc(-c4cccnc4)[nH]n3)c12 [Compound 264, 5-Methyl-2-(1-methyl-1H-imidazol-2-yl)-6-(1-methyl-1H-pyrazol-3-yl)-N-(5-(pyridin-3-yl)-1H-pyrazol-3-yl)pyrrolo[2,1-f][1,2,4]triazin-4-amine]
- % inh of Erk1/2 phosphorylation in Panc-1 (Erk1/2 phosphorylation): B* (26-49% activation)

SMILES: COc1cccc(-c2cn3nc(-c4nccn4C)nc(N[C@H]4C[C@@H](OC)C4)c3c2-c2ccccc2)c1C [Compound 269, 6-(3-Methoxy-2-methylphenyl)-N-((1s,3s)-3-methoxycyclobutyl)-2-(1-methyl-1H-imidazol-2-yl)-5-phenylpyrrolo[2,1-f][1,2,4]triazin-4-amine]
- % inh of Erk1/2 phosphorylation in Panc-1 (Erk1/2 phosphorylation): D (85-100% inhibition)

SMILES: Cc1c(-c2ccn(C)n2)cn2nc(-c3nccn3C)nc(Nc3cc(C(C)C)[nH]n3)c12 [Compound 268, N-(5-Isopropyl-1H-pyrazol-3-yl)-5-methyl-2-(1-methyl-1H-imidazol-2-yl)-6-(1-methyl-1H-pyrazol-3-yl)pyrrolo[2,1-f][1,2,4]triazin-4-amine]
- % inh of Erk1/2 phosphorylation in Panc-1 (Erk1/2 phosphorylation): D* (85-100% activation)

SMILES: Cn1ccnc1-c1nc(OCCN2CCCC2)c2c(-c3ccccc3)ccn2n1 [Compound 41, 2-(1-Methyl-1H-imidazol-2-yl)-5-phenyl-4-(2-(pyrrolidin-1-yl)ethoxy)pyrrolo[2,1-f][1,2,4]triazine]
- % inh of Erk1/2 phosphorylation in Panc-1 (Erk1/2 phosphorylation): 0 (0% inhibition)

SMILES: COc1cc(Nc2nc(-c3nccn3C)nn3cc(-c4ccn(C)n4)c(C)c23)n[nH]1 [Compound 252, N-(5-Methoxy-1H-pyrazol-3-yl)-5-methyl-2-(1-methyl-1H-imidazol-2-yl)-6-(1-methyl-1H-pyrazol-3-yl)pyrrolo[2,1-f][1,2,4]triazin-4-amine]
- % inh of Erk1/2 phosphorylation in Panc-1 (Erk1/2 phosphorylation): A* (1-25% activation)

SMILES: Cc1c(-c2ccn(C)n2)cn2nc(-c3nccn3C)nc(Nc3cc(-n4ccnc4C)ccn3)c12 [Compound 246, 5-Methyl-N-(4-(2-methyl-1H-imidazol-1-yl)pyridin-2-yl)-2-(1-methyl-1H-imidazol-2-yl)-6-(1-methyl-1H-pyrazol-3-yl)pyrrolo[2,1-f][1,2,4]triazin-4-amine]
- % inh of Erk1/2 phosphorylation in Panc-1 (Erk1/2 phosphorylation): 0 (0% inhibition)

SMILES: Cc1c(-c2ccn(C)n2)cn2nc(-c3nccn3C)nc(Nc3cc[nH]n3)c12 [Compound 256, 5-Methyl-2-(1-methyl-1H-imidazol-2-yl)-6-(1-methyl-1H-pyrazol-3-yl)-N-(1H-pyrazol-3-yl)pyrrolo[2,1-f][1,2,4]triazin-4-amine]
- % inh of Erk1/2 phosphorylation in Panc-1 (Erk1/2 phosphorylation): C (50-84% inhibition)

SMILES: CO[C@H]1C[C@H](Nc2nc(-c3nccn3C)nn3cc(-c4ccn(C)n4)c(C4CC4)c23)C1 [Compound 275, 5-Cyclopropyl-N-((1r,3r)-3-methoxycyclobutyl)-2-(1-methyl-1H-imidazol-2-yl)-6-(1-methyl-1H-pyrazol-3-yl)pyrrolo[2,1-f][1,2,4]triazin-4-amine]
- % inh of Erk1/2 phosphorylation in Panc-1 (Erk1/2 phosphorylation): 0 (0% inhibition)
